# Experimental data from ChEMBL document CHEMBL1143340, “Osteogenic activity of constituents from Butea monosperma” (Bioorg Med Chem Lett, 2009).
# Calls of active or inactive are those of the source. No cut-off for these calls is given here.
# Tested on: Osteoblast
# Experiment: Induction of mineralization in Sprague-Dawley rat calvaria derived primary osteoblast after 7 days by Alizarin Red S staining
# Type: functional, cell-based
row,SMILES,Activity
1,COc1ccc(-c2coc3cc(O)ccc3c2=O)cc1OC,Active
2,COc1cc(O)c2c(=O)c(-c3ccc(O)cc3O)coc2c1,Active
3,COc1ccc2c(=O)c(-c3ccc(O)cc3)coc2c1,Active
4,COc1ccc(-c2coc3cc(O)ccc3c2=O)cc1,Active
